In patent US6544991B2, “Compositions and methods for treating bacterial infections” (priority 2000, dated 2003):
Read-outs that look alike come from different tables or passages of the source.

Experiments:
MRSA strains = test: MIC by agar dilution or microbroth dilution method (NCCLS); format: cell-based, Staph. aureus; conditions: for MIC: Staphylococcus aureus
In short: (§1)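 MICs determined by NCCLS agar dilution or microbroth dilution on clinical isolates, with Staph. aureus 29213 as quality control strain. Synergy by agar dilution checkerboard; FIC computed as MIC of drug in combination divided by MIC alone, summed into FIC index.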

VRSA strains = test: MIC by agar dilution or microbroth dilution method (NCCLS), VRSA strains; format: cell-based, Staph. aureus; conditions: VRSA strains (n = 10)
In short: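 Clinical isolates from human infections, including VRSA strains from five countries, with S. aureus 29213 as QC strain. MICs by NCCLS agar dilution or microbroth dilution; combination synergy by agar dilution checkerboard, expressed as FIC index from MIC in combination over MIC alone.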

Staph. aureus 29213 = test: MIC, quality control strain; format: cell-based; conditions: for MIC: Staphylococcus aureus
In short: as §1

CN[C@H](CC(C)C)C(=O)N[C@H]1C(=O)N[C@@H](CC(N)=O)C(=O)N[C@H]2C(=O)N[C@H]3C(=O)N[C@H](C(=O)N[C@H](C(=O)O)c4cc(O)cc(O)c4-c4cc3ccc4O)[C@H](O)c3ccc(c(Cl)c3)Oc3cc2cc(c3O[C@@H]2O[C@H](CO)[C@@H](O)[C@H](O)[C@H]2O[C@H]2C[C@](C)(N)[C@H](O)[C@H](C)O2)Oc2ccc(cc2Cl)[C@H]1O [VCM, vancomycin]
0.5 µg/mL: MIC (MRSA strains; MRSA, read-out: MIC Values, strain H1) | MIC (MRSA strains; MRSA, read-out: MIC Values, strain JSCC 431) | MIC (MRSA strains; MRSA, read-out: MIC Values, strain JSCC 551) | MIC (MRSA strains; MRSA, read-out: MIC Values, strain JSCC 601) | MIC (MRSA strains; MRSA, read-out: MIC Values, strain JSCC 731) | MIC (MRSA strains; MRSA, read-out: MIC Values, strain JSCC 740) | MIC (MRSA strains; MRSA, read-out: MIC Values, strain JSCC 751) | MIC (MRSA strains; MRSA, read-out: MIC Values, strain JSCC 763) | MIC (MRSA strains; MRSA, read-out: MIC Values, strain N315) | MIC (Staph. aureus 29213; ATCC29213, read-out: MIC Values, strain ATCC29213, control sample (Ex. 37))
2 to 4 mg/L: MICs Range (VRSA strains)
1 µg/mL: MIC (MRSA strains; MRSA / NCTC 10442, read-out: MIC Values, strain NCTC 10442) | MIC (MRSA strains; MRSA, read-out: MIC Values, strain 85/2082) | MIC (MRSA strains; MRSA, read-out: MIC Values, strain JSCC 340) | MIC (MRSA strains; MRSA, read-out: MIC Values, strain JSCC 351) | MIC (MRSA strains; MRSA, read-out: MIC Values, strain JSCC 363) | MIC (MRSA strains; MRSA, read-out: MIC Values, strain JSCC 381) | MIC (MRSA strains; MRSA, read-out: MIC Values, strain JSCC 390) | MIC (MRSA strains; MRSA, read-out: MIC Values, strain JSCC 401) | MIC (MRSA strains; MRSA, read-out: MIC Values, strain JSCC 413) | MIC (MRSA strains; MRSA, read-out: MIC Values, strain JSCC 440) | MIC (MRSA strains; MRSA, read-out: MIC Values, strain JSCC 451) | MIC (MRSA strains; MRSA, read-out: MIC Values, strain JSCC 463) | MIC (MRSA strains; MRSA, read-out: MIC Values, strain JSCC 481) | MIC (MRSA strains; MRSA, read-out: MIC Values, strain JSCC 490) | MIC (MRSA strains; MRSA, read-out: MIC Values, strain JSCC 501) | MIC (MRSA strains; MRSA, read-out: MIC Values, strain JSCC 513) | MIC (MRSA strains; MRSA, read-out: MIC Values, strain JSCC 531) | MIC (MRSA strains; MRSA, read-out: MIC Values, strain JSCC 540) | MIC (MRSA strains; MRSA, read-out: MIC Values, strain JSCC 563) | MIC (MRSA strains; MRSA, read-out: MIC Values, strain JSCC 581 (lacks the mecA gene)) | MIC (MRSA strains; MRSA, read-out: MIC Values, strain JSCC 590 (lacks the mecA gene)) | MIC (MRSA strains; MRSA, read-out: MIC Values, strain JSCC 640) | MIC (MRSA strains; MRSA, read-out: MIC Values, strain JSCC 651) | MIC (MRSA strains; MRSA, read-out: MIC Values, strain JSCC 663) | MIC (MRSA strains; MRSA, read-out: MIC Values, strain JSCC 681) | MIC (MRSA strains; MRSA, read-out: MIC Values, strain JSCC 690) | MIC (MRSA strains; MRSA, read-out: MIC Values, strain JSCC 701) | MIC (MRSA strains; MRSA, read-out: MIC Values, strain JSCC 870) | MIC (MRSA strains; MRSA, read-out: MIC Values, strain Mu 3) | MIC (Staph. aureus 29213; ATCC29213, read-out: MIC Values, strain ATCC 29213, control sample (Ex. 26))
4 µg/mL: MIC (MRSA strains; MRSA, read-out: MIC Values, strain AMC 11094) | MIC (MRSA strains; MRSA, read-out: MIC Values, strain HIP 5827) | MIC (MRSA strains; MRSA, read-out: MIC Values, strain HIP 5836) | MIC (MRSA strains; MRSA, read-out: MIC Values, strain HIP 7737) | MIC (MRSA strains; MRSA, read-out: MIC Values, strain Mu 50)
0.5 to 2 mg/L: MICs Range (MRSA strains; MRSA strains (n = 38))
2 µg/mL: MIC (MRSA strains; MRSA, read-out: MIC Values, strain 99.3700W) | MIC (MRSA strains; MRSA, read-out: MIC Values, strain 99.3759V) | MIC (MRSA strains; MRSA, read-out: MIC Values, strain BM12612(new)) | MIC (MRSA strains; MRSA, read-out: MIC Values, strain HIP 6297) | MIC (MRSA strains; MRSA, read-out: MIC Values, strain JSCC 713) | MIC (MRSA strains; MRSA, read-out: MIC Values, strain JSCC 781) | MIC (MRSA strains; MRSA, read-out: MIC Values, strain LIM 2)

teicoplanin
0.5 to 4 mg/L: MICs Range (MRSA strains; MRSA strains (n = 38))
1 mg/L: MICs 50% (MRSA strains; MRSA strains (n = 38))
0.5 µg/mL: MIC Values (MRSA strains; strain JSCC 431) | MIC Values (MRSA strains; strain JSCC 681) | MIC Values (MRSA strains; strain N315)
2 µg/mL: MIC Values (MRSA strains; strain JSCC 401) | MIC Values (MRSA strains; strain JSCC 413) | MIC Values (MRSA strains; strain JSCC 440) | MIC Values (MRSA strains; strain JSCC 451) | MIC Values (MRSA strains; strain JSCC 481) | MIC Values (MRSA strains; strain JSCC 490) | MIC Values (MRSA strains; strain JSCC 501) | MIC Values (MRSA strains; strain JSCC 563) | MIC Values (MRSA strains; strain JSCC 651) | MIC Values (MRSA strains; strain JSCC 713) | MIC Values (MRSA strains; strain NCTC 10442)
8 µg/mL: MIC Values (MRSA strains; strain HIP 5836) | MIC Values (MRSA strains; strain JSCC 581 (lacks the mecA gene)) | MIC Values (MRSA strains; strain JSCC 590 (lacks the mecA gene)) | MIC Values (MRSA strains; strain LIM 2) | MIC Values (MRSA strains; strain Mu 3)
4 µg/mL: MIC Values (MRSA strains; strain 99.3700W) | MIC Values (MRSA strains; strain BM12612(new)) | MIC Values (MRSA strains; strain H1) | MIC Values (MRSA strains; strain HIP 6297) | MIC Values (MRSA strains; strain JSCC 781)
1 µg/mL: MIC Values (MRSA strains; strain 85/2082) | MIC Values (MRSA strains; strain JSCC 340) | MIC Values (MRSA strains; strain JSCC 351) | MIC Values (MRSA strains; strain JSCC 363) | MIC Values (MRSA strains; strain JSCC 381) | MIC Values (MRSA strains; strain JSCC 390) | MIC Values (MRSA strains; strain JSCC 463) | MIC Values (MRSA strains; strain JSCC 513) | MIC Values (MRSA strains; strain JSCC 531) | MIC Values (MRSA strains; strain JSCC 540) | MIC Values (MRSA strains; strain JSCC 551) | MIC Values (MRSA strains; strain JSCC 601) | MIC Values (MRSA strains; strain JSCC 640) | MIC Values (MRSA strains; strain JSCC 663) | MIC Values (MRSA strains; strain JSCC 690) | MIC Values (MRSA strains; strain JSCC 701) | MIC Values (MRSA strains; strain JSCC 731) | MIC Values (MRSA strains; strain JSCC 740) | MIC Values (MRSA strains; strain JSCC 751) | MIC Values (MRSA strains; strain JSCC 763) | MIC Values (MRSA strains; strain JSCC 870) | MIC Values (Staph. aureus 29213; strain ATCC 29213, control sample (Ex. 26)) | MIC Values (Staph. aureus 29213; strain ATCC29213, control sample (Ex. 37))
2 mg/L: MICs 90% (MRSA strains; MRSA strains (n = 38))
16 µg/mL: MIC Values (MRSA strains; strain 99.3759V) | MIC Values (MRSA strains; strain AMC 11094) | MIC Values (MRSA strains; strain HIP 5827) | MIC Values (MRSA strains; strain HIP 7737) | MIC Values (MRSA strains; strain Mu 50)
4 to 16 mg/L: MICs Range (VRSA strains)
